This is an account of results in ChEMBL document CHEMBL5518166, “Exploring thienothiadiazine dioxides as isosteric analogues of benzo- and pyridothiadiazine dioxides in the search of new AMPA and kainate receptor positive allosteric modulators” (Eur J Med Chem, 2024).

Series [1] deals with T1, Glutamate receptor ionotropic, AMPA (Rattus norvegicus) (UniProt P19491+P19492+P19493+P19490). Kind of series: Positive allosteric modulation at AMPAR in rat Primary embryonic cortical cell assessed as concentration required for 2 fold increase in AMPA induced fluorescence by FlipR assay. It is filed as cell-based. Particulars: filed as positive allosteric modulator.
Series [2] concerns the target Glutamate receptor ionotropic kainate 2 (Homo sapiens) (UniProt Q13002). Kind of series: Positive allosteric modulation at kainate receptor in HEK293 cells expressing GluK2-Q2a assessed as glutamate induced calcium influx by measuring efficacy relative to control. The settings on record: filed as positive allosteric modulator.
Series [3] deals with Glutamate receptor ionotropic AMPA (Homo sapiens, UniProt P42261+P42262+P42263+P48058). Nature of the series: Positive allosteric modulation at AMPAR in HEK293 cells expressing GluA2Qi subunit assessed as glutamate induced calcium influx. It is filed as cell-based.
The target in series [4] is Glutamate receptor ionotropic kainate 1 (Homo sapiens) (UniProt P39086). Nature of the series: Positive allosteric modulation at kainate receptor in HEK293 cells expressing GluK1-Q1b assessed as glutamate induced calcium influx by measuring efficacy relative to control. The settings on record: filed as positive allosteric modulator.
The target of series [5] is Glutamate receptor ionotropic AMPA (Homo sapiens) (UniProt P48058+P42263+P42262+P42261). Kind of series: Positive allosteric modulation at AMPAR in HEK293 cells expressing GluA2 assessed as glutamate induced calcium influx by measuring efficacy relative to control. It counts as cell-based. The settings on record: filed as positive allosteric modulator.
Series [6] is described as follows: Toxicity in NMR1 mouse assessed as effect on hypothermia at 30 mg/kg measured upto 180 mins. It is filed as organism-based. Particulars: in vivo, 3 h.
The target in series [7] is T1, Glutamate receptor ionotropic, AMPA (Rattus norvegicus). Kind of series: Positive allosteric modulation at AMPAR in rat Primary embryonic cortical cell assessed as concentration required for 2 fold increase in AMPA induced fluorescence by FDSS fluorescence assay. It is filed as cell-based. Particulars: Cerebral cortex cell, filed as positive allosteric modulator.
A short description of series [8]: Toxicity in NMR1 mouse assessed as pro-convulsant effect at 100 mg/kg measured upto 180 mins. It is filed as organism-based. Particulars: in vivo, 3 h.
The subject of series [9] is Mus musculus. Nature of the series: Cognition enhancing effect in CD1 mouse assessed as increase in exploration time spent on new object at 3 mg/kg, po measured after 1 hr by object recognition test (reference value: 35%). It counts as functional.
Series [10] in a line: Toxicity in NMR1 mouse assessed as effect on hypothermia at 100 mg/kg measured upto 180 mins. It is filed as organism-based. The settings on record: in vivo, 3 h.
The test system of series [11] is Mus musculus. Kind of series: Cognition enhancing effect in CD1 mouse assessed as increase in exploration time spent on new object at 1 mg/kg, po measured after 1 hr by object recognition test (reference value: 35%). It is filed as functional.
For series [12], the system named is Rattus norvegicus. Nature of the series: Cognition enhancing effect in Wistar rat assessed as increase in amplitude of initial post-synaptic response at 30 mg/kg, ip pretreated for 1 hr followed by tetanic stimulation and measured for 3 hrs. Particulars: time 4.0 hrs. It counts as functional, organism-based.
The target of series [13] is T1, Glutamate receptor ionotropic, AMPA (Rattus norvegicus). Nature of the series: Positive allosteric modulation at AMPAR in rat Primary embryonic cortical cell assessed as concentration required for 2 fold increase in AMPA induced fluorescence. It counts as cell-based. The settings on record: filed as positive allosteric modulator.
The target is the same in series [14]. Nature of the series: Positive allosteric modulation of rat cortex AMPAR expressed in xenopus oocytes assessed as concentration required for 2 fold increase in AMPA induced […]. It counts as cell-based. Particulars: Oocyte, filed as positive allosteric modulator.

Calls of active or inactive are those of the source. The calls are words filed in the database; no cut-off is given here. Bounds are passed on as bounds.

Glutamate receptor ionotropic kainate 1 (Homo sapiens), sequence (P39086 whole entry, looked up): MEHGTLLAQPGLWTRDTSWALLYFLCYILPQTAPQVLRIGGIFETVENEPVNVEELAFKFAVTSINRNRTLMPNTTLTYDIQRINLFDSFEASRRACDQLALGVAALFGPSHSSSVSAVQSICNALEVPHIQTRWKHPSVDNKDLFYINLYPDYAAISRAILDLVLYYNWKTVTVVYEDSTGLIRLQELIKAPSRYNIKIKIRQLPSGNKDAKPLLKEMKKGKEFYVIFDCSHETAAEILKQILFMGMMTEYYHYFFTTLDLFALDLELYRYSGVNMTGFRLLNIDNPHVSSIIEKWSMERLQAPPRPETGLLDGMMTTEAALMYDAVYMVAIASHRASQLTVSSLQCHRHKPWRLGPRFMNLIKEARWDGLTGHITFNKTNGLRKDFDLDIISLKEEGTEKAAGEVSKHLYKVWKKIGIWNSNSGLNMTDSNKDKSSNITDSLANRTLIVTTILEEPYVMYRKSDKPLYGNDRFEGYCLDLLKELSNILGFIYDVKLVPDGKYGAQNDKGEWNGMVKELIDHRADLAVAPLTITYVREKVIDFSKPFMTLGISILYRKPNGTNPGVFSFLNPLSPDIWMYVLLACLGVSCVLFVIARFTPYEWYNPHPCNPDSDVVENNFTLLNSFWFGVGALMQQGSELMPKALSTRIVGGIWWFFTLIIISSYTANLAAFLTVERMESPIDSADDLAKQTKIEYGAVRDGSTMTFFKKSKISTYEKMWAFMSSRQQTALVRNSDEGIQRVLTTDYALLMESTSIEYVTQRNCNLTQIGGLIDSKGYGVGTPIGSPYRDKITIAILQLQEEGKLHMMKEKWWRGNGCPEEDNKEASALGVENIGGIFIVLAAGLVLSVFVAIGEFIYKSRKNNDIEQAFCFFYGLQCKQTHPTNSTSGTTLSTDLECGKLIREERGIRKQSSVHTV
Glutamate receptor ionotropic kainate 2 (Homo sapiens), sequence (Q13002 whole entry, looked up): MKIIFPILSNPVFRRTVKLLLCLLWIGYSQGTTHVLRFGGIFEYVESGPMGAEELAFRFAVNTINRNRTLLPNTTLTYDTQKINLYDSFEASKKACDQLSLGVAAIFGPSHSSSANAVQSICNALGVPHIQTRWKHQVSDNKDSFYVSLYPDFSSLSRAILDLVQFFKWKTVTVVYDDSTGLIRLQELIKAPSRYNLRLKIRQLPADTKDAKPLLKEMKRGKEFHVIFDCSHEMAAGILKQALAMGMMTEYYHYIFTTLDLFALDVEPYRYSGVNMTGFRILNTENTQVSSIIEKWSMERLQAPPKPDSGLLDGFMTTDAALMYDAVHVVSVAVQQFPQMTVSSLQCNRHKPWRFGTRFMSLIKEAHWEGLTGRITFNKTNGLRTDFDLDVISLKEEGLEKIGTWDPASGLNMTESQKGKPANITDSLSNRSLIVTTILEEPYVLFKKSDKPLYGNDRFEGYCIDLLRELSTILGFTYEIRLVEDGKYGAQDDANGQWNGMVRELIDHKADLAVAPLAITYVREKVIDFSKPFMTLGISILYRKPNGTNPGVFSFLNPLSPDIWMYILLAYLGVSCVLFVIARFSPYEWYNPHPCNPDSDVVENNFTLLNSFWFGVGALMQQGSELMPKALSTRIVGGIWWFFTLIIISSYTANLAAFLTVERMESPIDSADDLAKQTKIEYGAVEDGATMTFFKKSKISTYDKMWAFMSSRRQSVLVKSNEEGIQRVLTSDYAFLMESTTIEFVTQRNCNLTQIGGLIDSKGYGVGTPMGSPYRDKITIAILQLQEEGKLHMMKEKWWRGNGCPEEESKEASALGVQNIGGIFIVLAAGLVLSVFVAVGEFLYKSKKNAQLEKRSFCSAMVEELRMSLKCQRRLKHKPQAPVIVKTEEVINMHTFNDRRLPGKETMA

As to `CCN1c2cc(Cl)sc2S(=O)(=O)N(C)C1C` (centres undefined), the EC in series [1] stood at 6.4 µM. Also, the Efficacy in series [2] was 60%; in [4] it was 50%. In addition, the EC50 (in general, the concentration that produces a half-maximal response) in [3] turned out to be 24.6 µM.

As to `O=S1(=O)NCN(C2CC2)c2cc(Cl)sc21`, the figures for the Activity in series [5] and in series [6] were 126% and “Toxic”, respectively. For the same molecule, the values for the Efficacy in [2] and in series [4] were 80% and 50%, respectively. The EC50 in [3] amounted to 4.7 µM. Further, the EC in series [7] is 0.24 µM.

`O=S1(=O)NC2CCCN2c2cc(Cl)sc21` (centres undefined): the Activity result in series [8] was “Non-Toxic”; in series [9] it was 69%; in series [10] it was “Non-Toxic”; in series [11], 82%. For the same molecule, the result in series [12] was Active.

As to `C=CCN1CNS(=O)(=O)c2sc(Cl)cc21`, the Activity in [5] stood at 126%. In [1], the EC came to 18.5 µM. Moreover, the Efficacy in [2] is 80%; in [4] it was 112%. Moreover, the 50% effective concentration (EC50) in series [3] stood at 26.9 µM.

As for `O=S1(=O)CCC(C2CC2)c2ccc(F)cc21` (centres undefined), the EC in series [13] amounted to 2.2 µM.

`CN1C2CCCN2c2cc(Cl)sc2S1(=O)=O` (centres undefined): in [1], the EC was determined as 40.1 µM. The 50% effective concentration (EC50) in series [3] is > 100 µM.

`C=CCN1CN(C)S(=O)(=O)c2sc(Cl)cc21`: the EC in series [1] amounted to 80.4 µM. Also, the EC50 in series [3] came to 76.5 µM.

Regarding `CC1N(CC(F)F)c2cc(Cl)sc2S(=O)(=O)N1C` (centres undefined), the figures for the Efficacy in series [2] and in series [4] were 60% and 50%, respectively. For the same molecule, the concentration giving a half-maximal response (EC50) in [3] amounted to 31.5 µM. Moreover, the EC in series [7] is 1.2 µM.

In the case of `O=S1(=O)N[C@H]2CCCN2C2CCCCC21` (some centres undefined), the EC in series [14] amounted to 24.6 µM.

As for `CN1CN(CC(F)F)c2cc(Cl)sc2S1(=O)=O`, in series [3], the concentration for a half-maximal effect (EC50) was found to be 39.9 µM. In addition, the EC in series [7] was 24.5 µM.

`O=S1(=O)NCN(C2CC2)c2ccc(F)cc21`: the Activity in series [5] was 100%. Besides, the EC in series [13] was 0.27 µM.
